Kd and KD data for three molecules are collected here from PMC11943294, “Identification of Key Active Constituents in Eucommia ulmoides Oliv. Leaves Against Parkinson’s Disease and the Alleviative Effects via 4E-BP1 Up-Regulation” (International Journal of Molecular Sciences, 2025).

For assay [1], the target named is T1, 4E-BP1 (Homo sapiens, UniProt Q13541).
T1 construct: gene EIF4EBP1; amine-coupled to CM5 chip; PDB 2JGB used for docking only
The assay can be described thus: SPR (BIAcore T200, CM5 chip, immobilized 4E-BP1, […] Langmuir). It is filed as binding. For orientation: SPR reads the build-up and loss of mass on a sensor chip optically.

The target of assay [2] is T1, 4E-BP1. The assay is described as above. To be noted: 25 °C; 0-125 μM analyte; unreliable (discussion b43 prints another KD, 3.75 × 10^−5 M, and a negative deviation of the binding curve).

T1 sequence (Q13541 2-118): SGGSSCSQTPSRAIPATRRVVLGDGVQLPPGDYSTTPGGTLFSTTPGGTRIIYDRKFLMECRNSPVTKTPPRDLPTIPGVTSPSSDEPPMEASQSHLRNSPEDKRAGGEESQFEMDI

One may read the Kd as the concentration at which binding is half-saturated. In the case of `O=C(O)/C=C/c1ccc(O)c(O)c1` [caffeic acid], the Kd on 4E-BP1 [1] was 12.9 µM.

On 4E-BP1 [1], `O=C(/C=C/c1ccc(O)c(O)c1)O[C@@H]1C[C@](O)(C(=O)O)C[C@@H](O)[C@H]1O` [chlorogenic acid] registered a dissociation constant (Kd) of 55.6 µM.

As a reminder, the KD is the constant that tells how readily two partners part at equilibrium. A lower KD goes with higher affinity. Consider `O=C(/C=C/c1ccc(O)c(O)c1)O[C@H]1[C@H](O)C[C@](O)(C(=O)O)C[C@H]1O` [cryptochlorogenic acid], for which, on 4E-BP1 [2], the KD stood at 4.469 µM.
